± gives the standard deviation of the averaged measurements.
What was measured:
Test in all cases: maximal % inhibition of viability relative to DMSO; higher = stronger effect
Details in all cases: treatment time: 3 days
UT-SCC-40 = tested on: UT-SCC-40
Method: (§1)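 HNSCC cell lines (500 cells/well, 384-well) were cultured on plastic, on top of (2D) or embedded (3D) in Matrigel or human leiomyoma matrix Myogel (500 ug/mL; Myogel 3D mixed with rat collagen I). Cells were treated for 3 days with 5 ten-fold concentrations of each drug, and viability was read by CellTiter-Glo. Viability was normalised to DMSO and benzethonium chloride controls and fitted with the FIMM DSRT pipeline to give IC50 (nM), maximal % inhibition and DSS. Suffixes _1/_2/_3 are replicates. Only inhibition-mode (IC50) fits are kept.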

UT-SCC-42B = tested on: UT-SCC-42B
Method: as §1

UT-SCC-24B = tested on: UT-SCC-24B
Method: as §1

UT-SCC-14 = tested on: UT-SCC-14
Method: as §1

UT-SCC-8 = tested on: UT-SCC-8
Method: as §1

UT-SCC-73 = tested on: UT-SCC-73
Method: as §1

UT-SCC-42A = tested on: UT-SCC-42A
Method: as §1

[1] = culture condition: embedded in Matrigel
[2] = culture condition: embedded in Myogel + collagen I
[3] = culture condition: on top of Matrigel
[4] = culture condition: on top of Myogel
[5] = culture condition: plastic 2D (no matrix)

`CO[C@H]1C[C@@H]2CC[C@@H](C)[C@@](O)(O2)C(=O)C(=O)N2CCCC[C@H]2C(=O)O[C@H]([C@H](C)C[C@@H]2CC[C@@H](OP(C)(C)=O)[C@H](OC)C2)CC(=O)[C@H](C)/C=C(\C)[C@@H](O)[C@@H](OC)C(=O)[C@H](C)C[C@H](C)/C=C/C=C/C=C/1C` [Ridaforolimus] was tested, and the “maximal % inhibition of viability” value (UT-SCC-40; [1]) was 29.4 ± 6.9%, the “maximal % inhibition of viability” value (UT-SCC-40; [2]) was 39 ± 9.4% and the “maximal % inhibition of viability” value (UT-SCC-40; [3]) was 27 ± 5.7%. For the same molecule, the “maximal % inhibition of viability” value (UT-SCC-40; [4]) was 27.4 ± 1.4%, the “maximal % inhibition of viability” value (UT-SCC-40; [5]) was 22.4 ± 1.4% and the “maximal % inhibition of viability” value (UT-SCC-42B; [1]) was 16.8 ± 7.8%. The “maximal % inhibition of viability” value (UT-SCC-42B; [3]) was 14.9 ± 2.2%, the “maximal % inhibition of viability” value (UT-SCC-42B; [4]) was 14.2 ± 3.1% and the “maximal % inhibition of viability” value (UT-SCC-42B; [5]) was 14.5 ± 1.9%. The “maximal % inhibition of viability” value (UT-SCC-24B; [1]) was 21.4 ± 6.2%, the “maximal % inhibition of viability” value (UT-SCC-24B; [2]) was 38.1 ± 5.8% and the “maximal % inhibition of viability” value (UT-SCC-24B; [3]) was 26.7 ± 6.1%. For the same molecule, the “maximal % inhibition of viability” value (UT-SCC-24B; [4]) was 31.1 ± 7.1%, the “maximal % inhibition of viability” value (UT-SCC-24B; [5]) was 27.4 ± 3.4% and the “maximal % inhibition of viability” value (UT-SCC-14; [1]) was 53.4 ± 6.2%. For the same molecule, the “maximal % inhibition of viability” value (UT-SCC-14; [2]) was 57.5 ± 6.6%, the “maximal % inhibition of viability” value (UT-SCC-14; [3]) was 54.5 ± 9.4% and the “maximal % inhibition of viability” value (UT-SCC-14; [4]) was 48.6 ± 5.5%. For the same molecule, the “maximal % inhibition of viability” value (UT-SCC-14; [5]) was 50.7 ± 12%, the “maximal % inhibition of viability” value (UT-SCC-8; [1]) was 45 ± 7% and the “maximal % inhibition of viability” value (UT-SCC-8; [2]) was 33.2 ± 7.1%. The “maximal % inhibition of viability” value (UT-SCC-8; [3]) was 38.4 ± 1.7%, the “maximal % inhibition of viability” value (UT-SCC-8; [4]) was 49.2 ± 8.1% and the “maximal % inhibition of viability” value (UT-SCC-8; [5]) was 46.9 ± 5.1%. For the same molecule, the “maximal % inhibition of viability” value (UT-SCC-73; [1]) was 38.7 ± 16%, the “maximal % inhibition of viability” value (UT-SCC-73; [2]) was 42.4 ± 11% and the “maximal % inhibition of viability” value (UT-SCC-73; [3]) was 30.6 ± 3.4%. For the same molecule, the “maximal % inhibition of viability” value (UT-SCC-73; [4]) was 40.2 ± 1.8%, the “maximal % inhibition of viability” value (UT-SCC-73; [5]) was 31.5 ± 4.3% and the “maximal % inhibition of viability” value (UT-SCC-42A; [1]) was 29.5 ± 6.2%. The “maximal % inhibition of viability” value (UT-SCC-42A; [2]) was 42.7 ± 5%, the “maximal % inhibition of viability” value (UT-SCC-42A; [3]) was 33.3 ± 2.6% and the “maximal % inhibition of viability” value (UT-SCC-42A; [4]) was 37.1 ± 6.1%.

— the supplement of paper PMC7017272
